# How the values were obtained:
# Format in all cases: cell-based, human
# AGS = assay: Microscopic observations, Hoechst 33342 stain, AGS; conditions: at IC50, 24, 48 and 72 h
# Protocol: In order to obtain information about cells and nuclei morphology, fluorescence microscopy was used. Briefly, after the incubation of A172 and AGS with compound 4b (at three time periods, namely 24, 48, and 72 h) cells were stained with Hoechst 33342 dye, which binds to DNA. Phase-contrast observations were also performed. […] Also, the cell membrane should be intact with a visible halo around the cells. In necrotic cells, the nuclei edges tend to be less clearly defined, and Hoechst 33342 results in a decreased fluorescence signal. This effect can be seen in a1,2 (A172) and b1,2 (AGS). […] To visualize morphological changes which occurred in the treated cells, microscopic observations were conducted using Hoechst 33342 stain. It is a blue fluorescent stain which allows observations of nuclei in eukaryotic cells. Also observations in bright fields were performed. Cells were stained according to the manufacturer’s protocol. Briefly, cells were plated in 12-well plates at a density of 1 × 10^5 cells/well and were incubated for 24 h at 37 °C, 5% CO2 in a humidified atmosphere. Next, cells were treated with 4b at an IC50 and further incubated for 24, 48, and 72 h. For microscopic observations cells were collected, washed with PBS and stained for 15 min with 1 µg/mL Hoechst 33342 dye. […]
# A172 = assay: Neutral red uptake assay on A172; conditions: A172, 72 h treatment
# Protocol: Based on the results obtained for the RPTEC cell line, the following concentrations of 4b–d were chosen to be applied to neoplastic cell lines: 0.1, 1, 10, 25, 50, and 100 µM. A172, AGS, CaCo-2, HeLa, and HepG2 cancer cell lines were used to perform a neutral red uptake assay. The obtained results were compared with a negative control (cell lines incubated without tested compounds), and half-maximal inhibitory concentration (IC50) values were calculated. Cell lines were plated in 96-well plates at a density of 1 × 10^4 cells/well. After 24 h incubation, which allowed the cells to attach and start to proliferate, the culture media were replaced with 4a–d dissolved in the appropriate medium at concentrations of 1, 10, 50, 100, 150 and 200 µM. […] Negative (1% DMSO in medium) and positive (1 µM staurosporine) controls were also included. Plates were incubated at 37 °C for 24, 48, and 72 h before the neutral red uptake assay. The neutral red uptake assay was performed as described by Repetto et al.. Briefly, the medium from all wells was discarded, the attached cells were washed with 100 µL PBS, and then 100 µL of neutral red working solution in medium (40 µg/mL) was added to each well. The neutral red solution was incubated overnight in the same conditions as the cells and centrifuged before being added to the cells. The plates were incubated for at least 2 h at 37 °C, 5% CO2, in a humidified atmosphere. Next, the neutral red medium was removed, and the cells were washed with 100 µL PBS. A 100 µL quantity of destain solution consisting of 50% ethanol, 1% glacial acetic acid, and deionized water was added to each well. Plates were incubated for 30 min with constant shaking on a horizontal shaker at 37 °C. Absorption was measured at 540 nm excitation. The cells’ viability was calculated by comparing results from experimental sets with negative controls according to the formula: % viability=ODtest substance−ODblind/ODnegative control−ODblind×100
# A172 cells = assay: Flow cytometry FDA/PI staining, cell viability, A172
# Protocol: A detailed analysis of potential cytotoxic mechanisms has been performed only for the selected compound (4b) where the IC50 values under 100 µM were detected in the screening NR assay. Flow cytometry was performed on the A172 and AGS cell lines. Cells were incubated with compound 4b at IC50 for 24, 48, and 72 h before analysis. Fluorescein diacetate (FDA) and propidium iodide (PI) were used as indicators for viable and nonviable (necrotic) cells. Most of the events were captured in the first and the fourth quadrant, which represent viable and necrotic cells, respectively. […] Similar results were obtained for the AGS cell line (Figure 8B), where the viability was 60.95%/55.10%/44.99% after the same incubation periods, respectively. Some events occurred in the second quadrant, but it was difficult to unequivocally categorize them into viable or nonviable (apoptotic/necrotic) cell populations, and thus more sensitive dyes, able to distinguish between the types of cell death, were needed.
# Two approaches for flow cytometry were used—FDA/PI staining to determine cell viability and annexin V/PI staining for cell death pathway determination.
# For cell viability determination, cells were plated in 6-well plates at a density of 1 × 10^5 cells/well and incubated for 24 h at 37 °C, 5% CO2 and in a humidified atmosphere. Next, cells were treated with 4b at a concentration calculated as IC50 in neutral red uptake assay. After 24, 48, and 72 h incubation, the cells (either adhered or floating) were collected, centrifuged at 1600 rpm, and washed with PBS. FDA and PI stock solution at a 1 mM concentration were prepared in DMSO and H2O, respectively. After centrifugation and supernatant discarding, cells were stained with FDA at a final concentration of 1 µM prepared in PBS and incubated in the dark. After 15 min, they were centrifuged at 1600 rpm, resuspended in ice-cold PBS, and placed on ice. Samples were stained with 1 µM PI for 2 min before the cytometry evaluation. […]
smiles,measurement,setting,value
"Cc1nc(-c2ccccc2)nc(Nc2ccc(F)cc2)c1C=Nc1cccc(Cl)c1 [compound 4b, 5-{[(3-chlorophenyl)imino]methyl}-N-(4-fluorophenyl)-6-methyl-2-phenylpyrimidin-4-amine]",cell and nuclei morphology,AGS,leads to necrosis
same,IC50,A172,63.4 µM
same,IC50,"A172; Homo sapiens, A 172, 72 h",63.4 µM
same,"Q1 events (viable cells; viability), FDA/PI","A172 cells; A172, at IC50, 24 h",59.32%
same,"Q1 events (viable cells; viability), FDA/PI","A172 cells; A172, at IC50, 48 h",50.98%
same,"Q1 events (viable cells; viability), FDA/PI","A172 cells; A172, at IC50, 72 h",43.88%

# From publication PMC10889512, “Pyrimidine Schiff Bases: Synthesis, Structural Characterization and Recent Studies on Biological Activities” (International Journal of Molecular Sciences, 2024)
